Results on 4 molecules are retold here after paper PMC9860708, “Parent-Metabolite Pharmacokinetic Modeling of Formononetin and Its Active Metabolites in Rats after Oral Administration of Formononetin Formulations” (Pharmaceutics, 2022).

Read-outs that look alike come from different tables or passages of the source.

Series [1] in a line: Plasma protein binding assay (ultrafiltration, Centrifree). The series is classed as in vitro ADME. The following applies: male SD rat plasma, n = 3. The protocol:
The plasma protein binding of FMN, DZN, DHD and EQL was estimated using Ultra-filtration method using Centrifree® micro-partition system (Amicon Inc., Lexington, MA, USA). The experiment was conducted at concentrations of 50, 150, 500 and 1000 ng/mL (n = 3) for all four compounds in male SD rat plasma. The spiked plasma samples were allowed to equilibrate for at least 15 min before it was put into Centrifree® ultrafiltration tubes. The tubes were centrifuged at 1000× g for 15 min at 37 °C. Then, compound concentrations in the ultrafiltrate buffer (CUF) and plasma in the sample reservoir (Ctotal) were quantitated by the anlytical method described in Section 2.3. The plasma protein binding rate was calculated using the following formula: Plasma protein binding (%)=[…]

Series [2] is described as follows: Pharmacokinetic evaluation after oral administration of FMN solution and formulations (non-compartmental analysis). The note with it: 20 mg/kg FMN, all three groups.
Procedure: The animals were maintained in the temperature and humidity range of 25 ± 1 °C and 50 ± 5% RH, respectively, over the acclimation period. To minimize the effects of food on pharmacokinetic profile of isoflavones, the animals were fasted overnight with free access to water.
Animals were allocated equally into 3 groups (5 rats per group). […] The blood samples were immediately centrifuged (10,000× g, 10 min, 4 °C) to obtain plasma samples and was stored at −80 °C.
Determination of the four isoflavones and DZN-d4 (internal standard, IS) in samples were conducted using Acquity UPLC system (Waters Corp., Milford, MA, USA) coupled to Xevo TQ-S triple quadrupole mass spectrometry (Waters Corp., USA) with electrospray (ESI) source. The chromatographic separations of the four isoflavones was performed in a Kinetex C18 column (2.1 × 100 mm, 1.7 μm particle size, Phenomenex, Torrance, CA, USA) at 40 ± 0.5 °C. The mobile phase consisted of water (mobile phase A) and acetonitrile (mobile phase B) with gradient elution at a flow rate of 0.2 mL/min. […] The optimized collision energy of FMN, DZN, DHD, EQL and IS were −22, −38, −22, −15 and −38, respectively. Data acquisition and analysis were achieved using Masslynx 4.1 software (Waters Corp., USA).
The samples were extracted by protein precipitation using methanol. 50 μL of rat samples were added with 10 μL of the IS solution (10 μg/mL of DZN-d4 in 50% methanol) to correct the loss of analytes during sample preparation. 100 μL of methanol was added to the mixed sample, vortexed for 1 min and centrifuged at 15,000× g for 5 min. Then, 5 μL of aliquots were injected into the UPLC-MS/MS system. The method validation was performed according to the FDA guideline for industry bioanalytical method validation.
PK parameters such as the maximum plasma concentration (Cmax) and the time to reach Cmax (Tmax) were determined from plasma concentration-time curve. The linear trapezoidal rule was used to calculate area under the curve to the final measured concentration (AUC0-t), then area from Clast to area expolated to infinity was added to AUC0-t to integrate AUC0-∞. […] The PK analysis was performed using WinNonlin® software (version 8.2, Certara™ Company, Princeton, NJ, USA). Then, a PK model was developed for FMN and its metabolites following oral administration of solution or formulations. The model was implemented in the WinNonlin model with NLME engine and estimated using the naïve-pooled and First Order Conditional Estimation-Extended Least Squares (FOCE-ELS) algorithms. […]
For series [3] the following is noted: cited from earlier work.
Details of series [4]: method as in PMID 21266188. The following applies: female rat plasma, cited from earlier work.
Details of series [5]: method as in PMID 12714433. The note with it: humans; cited from earlier work.
A further series deals with human serum albumin. The note with it: concentration levels of 3–15 μM DZN, ref Song et al. 23; cited from earlier work.
The mark [6] stands for this setting: oral 20 mg/kg FMN dissolved in 0.5% CMC-Na, male Sprague Dawley rats.

One may read the fraction unbound as the share of the substance not bound to proteins or other matrix. Consider `Oc1ccc([C@H]2COc3cc(O)ccc3C2)cc1` [EQL, Equol], for which, in series [1], the fraction unbound at 15 min, 150 ng/mL was 0.0131; the fraction unbound at 15 min, 500 ng/mL is 0.0138; the free fraction (fraction unbound) at 15 min, 1000 ng/mL is 0.022. The “Detection of analyte in rat plasma after oral administration of FMN” value (shortened to “Detection of analyte in rat plasma”) in series [2] is listed as “not quantitated”.
With `O=C1c2ccc(O)cc2OCC1c1ccc(O)cc1` (stereo not shown) [DHD, Dihydrodaidzein], in series [1], the unbound share (fraction unbound) at 15 min, 50 ng/mL was 0.118; the fraction unbound at 15 min, 150 ng/mL was 0.126; the fraction unbound at 15 min, 500 ng/mL is 0.12; the unbound share (fraction unbound) at 15 min, 1000 ng/mL is 0.132. In series [2], the “Detection of analyte in rat plasma” value is listed as “not quantitated”.
In general, Cmax refers to the peak of the concentration-time curve. On to `COc1ccc(-c2coc3cc(O)ccc3c2=O)cc1` [FMN, Formononetin], for which, in series [1], the fraction unbound at 15 min, 50 ng/mL is 0.116; the unbound share (fraction unbound) at 15 min, 150 ng/mL is 0.0664; the fraction unbound at 15 min, 500 ng/mL was 0.145; the unbound share (fraction unbound) at 15 min, 1000 ng/mL was 0.082. Besides, in series [3] (2–50 mg/kg FMN orally administered, rats), the “Time at which the peak plasma concentration was reached” value was 0.5 to 1 h. For the same molecule, in series [3] (FMN solution dissolved in 0.5% CMC-Na, rats), the “oral bioavailability (F)” value was 21.8%. The “clearance of FMN” value in series [3] (intravenous administration, rats) is listed as 5 L/h/kg. Moreover, in series [3] (setting [6]), the AUCinf was 757.7 ± 48.2 nM·h and the Cmax is 0.302 ± 0.0359 µM. For the same molecule, the Plasma protein binding in series [4] (50 ng/mL) was 93.61 ± 0.44%. The Plasma protein binding in series [4] (150 ng/mL) was 96.14 ± 0.15%. The FMN excreted intact result in series [5] is “about 25%”. For the same molecule, the “Detection of analyte in rat plasma” value in series [2] is given as “detected”.
For the molecule `O=c1c(-c2ccc(O)cc2)coc2cc(O)ccc12` [DZN, Daidzein], in series [1], the fraction unbound at 15 min, 50 ng/mL was 0.0456; the unbound share (fraction unbound) at 15 min, 150 ng/mL was 0.0342; the fraction unbound at 15 min, 500 ng/mL was 0.0569; the fraction unbound at 15 min, 1000 ng/mL was 0.0531. Also, the “unbound DZN” value with human serum albumin is 0.889 to 6.398 µM. In addition, the “Detection of analyte in rat plasma” value in series [2] is “detected”.
